Measurements reported in BigSolDB 2.1.

CONC(=O)Nc1ccc(-c2sc3c(c2CN(C)C)c(=O)n(-c2ccc(OC)nn2)c(=O)n3Cc2c(F)cccc2F)cc1
solubility (mole fraction)
Conditions | 298.15 K | 303.15 K | 308.15 K | 313.15 K | 318.15 K | 323.15 K
in acetonitrile | 0.000483 | 0.000585 | 0.000667 | 0.000752 | 0.000856 | 0.000999
in ethanol | 0.000134 | 0.000152 | 0.000171 | 0.000209 | 0.00025 | 0.000301
in ethyl acetate | 0.000368 | 0.0004 | 0.00045 | 0.000505 | 0.000539 | 0.000576
in isopropanol | 6.6e-05 | 8.3e-05 | 0.000103 | 0.000125 | 0.000153 | 0.000191
in methanol | 0.000438 | 0.00051 | 0.000578 | 0.000639 | 0.000713 | 0.000774
